Laboratory results published in PubChem BioAssay (NCI).
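All cell lines were grown in 96-well plates and treated with compound for 48 hours. GI50 marks 50% less growth. At the TGI there is no net growth.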

Columns and labels:
Test in all cases: DTP human tumour cell line panel, 48 h
[1] = tested on: MCF7 breast
[2] = tested on: NCI-H522 lung
[3] = tested on: MDA-MB-468 breast
[4] = tested on: SK-MEL-2 melanoma
[5] = tested on: IGROV1 ovarian
[6] = tested on: DU-145 prostate
[7] = tested on: K-562 leukemia
[8] = tested on: U251 CNS
[9] = tested on: 786-0 renal
[10] = tested on: SNB-19 CNS
[11] = tested on: EKVX NSCLC
[12] = tested on: NCI-H460 lung
[13] = tested on: MALME-3M melanoma
[14] = tested on: UACC-257 melanoma
[15] = tested on: BT-549 breast
[16] = tested on: OVCAR-8 ovarian
[17] = tested on: ACHN renal
[18] = tested on: HT29 colon
[19] = tested on: LOX IMVI melanoma
[20] = tested on: SK-MEL-5 melanoma
[21] = tested on: HCT-116 colon
[22] = tested on: HS 578T breast
[23] = tested on: NCI/ADR-RES ovarian
[24] = tested on: KM12 colon
[25] = tested on: SF-268 CNS
[26] = tested on: SF-295 CNS
[27] = tested on: COLO 205 colon
[28] = tested on: HCC-2998 colon
[29] = tested on: T-47D breast
[30] = tested on: CCRF-CEM leukemia
[31] = tested on: OVCAR-3 ovarian
[32] = tested on: A549 NSCLC
[33] = tested on: SNB-75 CNS
[34] = tested on: CAKI-1 renal
[35] = tested on: HCT-15 colon
[36] = tested on: M14 melanoma
[37] = tested on: SF-539 CNS
[38] = tested on: MDA-MB-231 breast
[39] = tested on: MDA-MB-435
[40] = tested on: TK-10 renal
[41] = tested on: PC-3 prostate
[42] = tested on: OVCAR-4 ovarian
[43] = tested on: OVCAR-5 ovarian
[44] = tested on: HL-60(TB) leukemia
[45] = tested on: A498 renal
[46] = tested on: RXF 393 renal
[47] = tested on: HOP-92 NSCLC
[48] = tested on: HOP-62 NSCLC
[49] = tested on: MOLT-4 leukemia
[50] = tested on: SK-OV-3 ovarian
[51] = tested on: SK-MEL-28 melanoma
[52] = tested on: NCI-H23 lung
[53] = tested on: SR leukemia
[54] = tested on: SW-620 colon
[55] = tested on: SN12C renal
[56] = tested on: UACC-62 melanoma
[57] = tested on: UO-31 renal
[58] = tested on: NCI-H226 lung

C=C(C)[C@@H]1CC[C@]2(COP(=O)(OCC)OCC)CC[C@]3(C)[C@H](CC[C@@H]4[C@@](C)(CCCN)[C@H](C(=C)C)CC[C@]43C)[C@@H]12
GI50 [1]: 3.08 µM
TGI [1]: 12 µM
GI50 [2]: 3.01 µM
TGI [2]: 14.1 µM
GI50 [3]: 2.56 µM
TGI [3]: 11.3 µM
GI50 [4]: 9.64 µM
TGI [4]: 22.6 µM
GI50 [5]: 11.4 µM
TGI [5]: 23.7 µM
GI50 [6]: 10.9 µM
TGI [6]: 23.8 µM
GI50 [7]: 3.77 µM
TGI [7]: > 100 µM
GI50 [8]: 6.51 µM
TGI [8]: 20.7 µM
GI50 [9]: 5.04 µM
TGI [9]: 19.9 µM
GI50 [10]: 10 µM
TGI [10]: 21.7 µM
GI50 [11]: 4.88 µM
TGI [11]: 18.5 µM
GI50 [12]: 3.43 µM
TGI [12]: 14.2 µM
GI50 [13]: 7.16 µM
TGI [13]: 19.7 µM
GI50 [14]: 5.55 µM
TGI [14]: 18.3 µM
GI50 [15]: 9.88 µM
TGI [15]: 22.2 µM
GI50 [16]: 6.35 µM
TGI [16]: 23.1 µM
GI50 [17]: 5.54 µM
TGI [17]: 18.1 µM
GI50 [18]: 4.03 µM
TGI [18]: 16.2 µM
GI50 [19]: 4.77 µM
TGI [19]: 17.2 µM
GI50 [20]: 3.47 µM
TGI [20]: 12.9 µM
GI50 [21]: 2.92 µM
TGI [21]: 13.2 µM
GI50 [22]: 4.67 µM
TGI [22]: 24.3 µM
GI50 [23]: 5.45 µM
TGI [23]: 21.7 µM
GI50 [24]: 4.73 µM
TGI [24]: 17.8 µM
GI50 [25]: 6.46 µM
TGI [25]: 23.8 µM
GI50 [26]: 4.43 µM
TGI [26]: 17.6 µM
GI50 [27]: 4.56 µM
TGI [27]: 19.2 µM
GI50 [28]: 3.7 µM
TGI [28]: 15.1 µM
GI50 [29]: 3.23 µM
TGI [29]: 13.9 µM
GI50 [30]: 2.81 µM
TGI [30]: 11.3 µM
GI50 [31]: 3 µM
TGI [31]: 12.7 µM
GI50 [32]: 4.45 µM
TGI [32]: 18.5 µM
GI50 [33]: 5.01 µM
TGI [33]: 20 µM
GI50 [34]: 4.12 µM
TGI [34]: 17.3 µM
GI50 [35]: 3.76 µM
TGI [35]: 13.7 µM
GI50 [36]: 5.13 µM
TGI [36]: 20.4 µM
GI50 [37]: 10.4 µM
TGI [37]: 22.1 µM
GI50 [38]: 7.53 µM
TGI [38]: 20.1 µM
GI50 [39]: 4.07 µM
TGI [39]: 17.4 µM
GI50 [40]: 12 µM
TGI [40]: 25.2 µM
GI50 [41]: 2.24 µM
TGI [41]: 11.4 µM
GI50 [42]: 5.35 µM
TGI [42]: 21.8 µM
GI50 [43]: 10.9 µM
TGI [43]: 22.8 µM
GI50 [44]: 2.87 µM
TGI [44]: 9.23 µM
GI50 [45]: 12.5 µM
TGI [45]: 25.2 µM
GI50 [46]: 3.42 µM
TGI [46]: 15.2 µM
GI50 [47]: 2.63 µM
TGI [47]: 16.2 µM
GI50 [48]: 11.1 µM
TGI [48]: 24.9 µM
GI50 [49]: 3.27 µM
TGI [49]: 16.1 µM
GI50 [50]: 13.6 µM
TGI [50]: 28.7 µM
GI50 [51]: 7.84 µM
TGI [51]: 20.2 µM
GI50 [52]: 4.73 µM
TGI [52]: 17.8 µM
GI50 [53]: 3.66 µM
TGI [53]: > 100 µM
GI50 [54]: 3.49 µM
TGI [54]: 15.1 µM
GI50 [55]: 4.37 µM
TGI [55]: 16.6 µM
GI50 [56]: 4.45 µM
TGI [56]: 17.2 µM
GI50 [57]: 3.58 µM
TGI [57]: 15.2 µM
GI50 [58]: 5.64 µM
TGI [58]: 22 µM
